# Measured values taken from the supplement of paper PMC10307832.
# Key:
# Assay in all cases: relative viability (nuclei count vs DMSO), 5 days (fraction); higher = more cells survive
# JZL-184 + Crizotinib = compound: C1CN(CCC1C(C2=CC3=C(C=C2)OCO3)(C4=CC5=C(C=C4)OCO5)O)C(=O)OC6=CC=C(C=C6)[N+](=O)[O-] [JZL-184] + C[C@@H](Oc1cc(-c2cnn(C3CCNCC3)c2)cnc1N)c1c(Cl)ccc(F)c1Cl [Crizotinib] (partner 1 µM)
# Summary of the method: (§1)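 Each reported value is a median over duplicate plates. It expresses relative viability: treated-well nuclei count divided by vehicle-well nuclei count. Lung cancer cell lines in 1536-well plates were dosed by pin tool a day after seeding, alone with one drug or with a fixed anchor-drug dose plus five library-drug doses (not always all listed) in √10 steps, and nuclei were counted after 5 days.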
# JZL-184 + Alpelisib = compound: C1CN(CCC1C(C2=CC3=C(C=C2)OCO3)(C4=CC5=C(C=C4)OCO5)O)C(=O)OC6=CC=C(C=C6)[N+](=O)[O-] [JZL-184] + Cc1nc(NC(=O)N2CCC[C@H]2C(N)=O)sc1-c1ccnc(C(C)(C)C(F)(F)F)c1 [Alpelisib] (partner 2 µM)
# Summary of the method: as §1
# JZL-184 + OSI-027 = compound: C1CN(CCC1C(C2=CC3=C(C=C2)OCO3)(C4=CC5=C(C=C4)OCO5)O)C(=O)OC6=CC=C(C=C6)[N+](=O)[O-] [JZL-184] + COc1cccc2cc(-c3nc([C@H]4CC[C@H](C(=O)O)CC4)n4ncnc(N)c34)[nH]c12 [OSI-027] (partner 0.5 µM)
# Summary of the method: as §1
# JZL-184 + Foretinib = compound: C1CN(CCC1C(C2=CC3=C(C=C2)OCO3)(C4=CC5=C(C=C4)OCO5)O)C(=O)OC6=CC=C(C=C6)[N+](=O)[O-] [JZL-184] + COc1cc2c(Oc3ccc(NC(=O)C4(C(=O)Nc5ccc(F)cc5)CC4)cc3F)ccnc2cc1OCCCN1CCOCC1 [Foretinib] (partner 0.25 µM)
# Summary of the method: as §1
# JZL-184 + Phenformin = compound: C1CN(CCC1C(C2=CC3=C(C=C2)OCO3)(C4=CC5=C(C=C4)OCO5)O)C(=O)OC6=CC=C(C=C6)[N+](=O)[O-] [JZL-184] + N=C(N)NC(=N)NCCc1ccccc1 [Phenformin] (partner 250 µM)
# Summary of the method: as §1
Cell Line,relative viability (JZL-184 + Crizotinib; first compound 0.04 µM),relative viability (JZL-184 + Crizotinib; first compound 0.4 µM),relative viability (JZL-184 + Crizotinib; first compound 1.265 µM),relative viability (JZL-184 + Crizotinib; first compound 4 µM),relative viability (JZL-184 + Alpelisib; first compound 0.04 µM),relative viability (JZL-184 + Alpelisib; first compound 0.4 µM),relative viability (JZL-184 + Alpelisib; first compound 1.265 µM),relative viability (JZL-184 + Alpelisib; first compound 4 µM),relative viability (JZL-184 + OSI-027; first compound 0.04 µM),relative viability (JZL-184 + OSI-027; first compound 0.4 µM),relative viability (JZL-184 + OSI-027; first compound 1.265 µM),relative viability (JZL-184 + OSI-027; first compound 4 µM),relative viability (JZL-184 + Foretinib; first compound 0.04 µM),relative viability (JZL-184 + Foretinib; first compound 0.4 µM),relative viability (JZL-184 + Foretinib; first compound 1.265 µM),relative viability (JZL-184 + Foretinib; first compound 4 µM),relative viability (JZL-184 + Phenformin; first compound 0.04 µM),relative viability (JZL-184 + Phenformin; first compound 0.4 µM),relative viability (JZL-184 + Phenformin; first compound 1.265 µM),relative viability (JZL-184 + Phenformin; first compound 4 µM)
201T,1.06,1.03,1.01,1.01,0.991,1.05,1.04,0.997,0.754,0.685,0.744,0.701,1.15,1.09,1.15,1.11,0.451,0.44,0.465,0.45
A549,0.609,0.765,0.68,0.699,0.966,0.588,0.894,0.614,–,–,–,–,1.23,0.942,1.06,0.976,0.195,0.167,0.164,0.112
A-427,1.03,0.907,0.914,0.77,1.08,1.06,1.1,0.979,0.469,0.435,0.479,0.474,1.06,1.03,1.33,0.972,0.308,0.327,0.441,0.306
ABC-1,1.35,0.925,1.33,1.21,1.1,0.996,1.06,0.952,0.644,0.441,0.667,0.448,1.23,0.986,1.12,1.09,0.225,0.224,0.301,0.247
BEN,1,0.87,1.02,0.861,1.18,0.998,1.12,1.03,0.289,0.254,0.324,0.296,0.666,0.772,0.78,0.846,0.245,0.235,0.271,0.279
CAL-12T,0.993,0.607,0.621,0.497,1.5,1.39,1.08,1.17,0.897,0.648,0.673,0.614,1.22,1.07,1.07,1.2,0.751,0.26,0.626,0.539
COR-L23,0.704,0.725,0.723,0.636,1.02,0.672,0.704,0.708,0.964,0.783,0.806,0.64,0.978,0.881,1.01,0.902,0.552,0.401,0.438,0.429
COR-L 105,0.985,0.735,0.822,0.696,0.998,1.2,0.837,0.916,0.908,0.731,0.744,0.703,0.989,0.975,0.995,1.22,0.595,0.497,0.548,0.436
ChaGo-K-1,1.31,1.08,1.08,1.06,–,–,–,–,0.637,0.63,0.635,0.555,0.981,0.872,0.96,0.911,0.616,0.449,0.467,0.44
EKVX,0.934,0.972,1.02,0.741,0.679,0.84,0.875,0.886,0.752,0.536,0.669,0.704,0.677,0.752,0.925,0.755,0.236,0.243,0.244,0.238
EMC-BAC-2,0.939,0.726,0.785,0.704,0.794,0.733,0.776,0.729,0.368,0.375,0.396,0.343,1.09,0.957,1.09,0.947,0.609,0.476,0.568,0.456
EPLC-272H,1.03,0.814,1.93,1.03,0.953,0.817,1.01,0.966,0.311,0.259,0.35,0.351,0.773,0.668,0.907,0.712,0.303,0.293,0.351,0.34
H3255,1.17,0.748,0.91,0.786,0.794,0.725,0.714,0.577,0.563,0.52,0.557,0.589,0.832,0.684,0.95,0.987,0.321,0.323,0.336,0.422
HARA,1.17,0.99,0.995,1.03,0.941,0.824,0.853,0.845,0.547,0.444,0.614,0.456,1.16,0.569,0.968,0.924,0.376,0.39,0.481,0.407
HCC-15,0.944,0.808,0.883,0.762,0.933,0.899,0.877,0.931,0.727,0.635,0.742,0.677,1.25,1.01,1.11,1.03,0.548,0.467,0.485,0.454
HCC-44,0.815,0.78,0.815,0.783,0.671,0.8,0.749,0.74,0.628,0.366,0.689,0.471,–,–,–,–,0.231,0.104,0.245,0.185
HCC-78,0.34,0.317,0.359,0.341,0.325,0.317,0.375,0.315,0.348,0.326,0.379,0.382,0.558,0.526,0.515,0.475,0.63,0.611,0.754,0.752
HCC-366,0.827,0.443,0.526,0.5,0.355,0.436,0.506,0.358,1.04,0.868,0.97,0.825,0.986,0.889,0.931,0.958,0.664,0.553,0.653,0.624
HCC-827,0.918,0.888,0.977,0.854,0.724,0.927,0.981,0.952,0.954,0.769,0.798,0.707,1.12,0.962,1.01,0.943,0.424,0.376,0.424,0.379
HOP-62,1.01,0.905,1.05,0.839,1.13,1.05,1.05,0.96,0.981,0.805,0.826,0.866,1.16,1.08,1.09,1.03,0.787,0.639,0.705,0.683
LC-2-ad,0.695,0.454,0.481,0.42,0.858,0.822,0.95,0.839,0.92,0.926,0.907,0.734,1.13,0.847,0.886,0.955,0.639,0.549,0.67,0.538
LCLC-97TM1,0.574,–,0.505,0.271,0.242,–,0.252,0.295,0.493,0.393,0.504,0.559,1.01,0.981,0.979,0.867,0.396,0.431,0.449,0.435
NCI-H522,–,–,–,–,–,–,–,–,0.906,0.748,0.748,0.748,–,–,–,–,0.606,0.667,0.59,0.635
NCI-H1395,–,–,–,–,0.993,1.01,1.1,1.04,0.623,0.519,0.69,0.581,0.918,0.972,0.965,0.856,0.392,0.421,0.491,0.413
NCI-H1650,1.28,0.995,1.01,0.893,–,–,–,–,0.674,0.504,0.837,0.608,1.22,1.03,1.35,0.898,0.427,0.411,0.524,0.357
NCI-H1703,0.865,0.554,0.726,0.508,0.335,0.295,0.389,0.294,–,–,–,–,0.356,0.317,0.402,0.295,–,–,–,–
NCI-H1792,1.04,0.713,1,0.97,0.835,0.613,0.762,0.757,0.683,0.744,0.779,0.62,–,–,–,–,0.288,0.147,0.62,0.281
NCI-H1793,–,–,–,–,0.689,0.706,0.77,0.691,0.26,0.263,0.319,0.259,0.63,0.84,0.865,0.583,0.162,0.368,0.44,0.456
NCI-H2342,–,–,–,–,–,–,–,–,0.614,0.548,0.617,0.704,1.04,1.11,1.26,1.12,0.598,0.534,0.635,0.697
SW 900,–,–,–,–,–,–,–,–,0.596,0.536,0.566,0.5,1.1,0.858,0.824,0.799,0.595,0.506,0.555,0.748
